“And” between values parts separate entries of the source, which are not always exact repeats. Identical values can stand only once. Numbers after ± are expanded uncertainties.
Columns and labels:
[1] = Crystal; DTA
[2] = Molar enthalpy of transition or fusion; conditions: Crystal; DSC

For `O.O.O=C(O)C(=O)O` [ethanedioic acid dihydrate], the Normal melting temperature [1] was 99.60 ± 0.7 °C and 101.20 ± 0.7 °C and the “Molar enthalpy of transition or fusion” value [2] was 11.3 kcal/mol and 11.2 kcal/mol.

Reference: the NIST ThermoML archive (doi:10.1016/j.tca.2016.10.016)
